ChEMBL document CHEMBL3621168, “Elucidating new structural features of the triazole scaffold for the development of mPGES-1 inhibitors” (Medchemcomm, 2015)

Legend:
Prostaglandin E synthase = target: T1, Prostaglandin E synthase (Homo sapiens, UniProt O14684); test: Inhibition of mPGES1 isolated from human A549 cells after 15 mis by RP HPLC analysis; type: cell-free
T1 sequence (O14684 whole entry): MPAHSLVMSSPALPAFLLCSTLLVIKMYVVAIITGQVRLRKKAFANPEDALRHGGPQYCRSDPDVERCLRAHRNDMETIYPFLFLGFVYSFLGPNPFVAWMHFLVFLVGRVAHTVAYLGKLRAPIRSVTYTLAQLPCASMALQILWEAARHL

[1] = target: T2, Prostaglandin E synthase (Homo sapiens) (UniProt O14684); test: Inhibition of mPGES1 isolated from human A549 cells at 10 uM after 15 mis by RP HPLC analysis; type: cell-free
T2 sequence (whole entry): T1 sequence (O14684 whole entry)

SMILES	IC50 (Prostaglandin E synthase) [µM]	inhibition [1] [%]
N#Cc1ccc(-n2cc(COc3ccc(C(F)(F)F)cc3)nn2)cc1C(F)(F)F	> 30	20
N#Cc1ccc(-n2nnc(COc3ccc([N+](=O)[O-])cc3C(F)(F)F)c2I)cc1C(F)(F)F	0.7	
N#Cc1ccc(-n2cc(COc3ccc([N+](=O)[O-])cc3C(F)(F)F)nn2)cc1C(F)(F)F	> 30	20
O=[N+]([O-])c1ccc(OCc2cn(-c3cccc(C(F)(F)F)c3)nn2)c(C(F)(F)F)c1	> 30	20
N#Cc1ccc(-n2cc(COc3cccc(C(F)(F)F)c3)nn2)cc1C(F)(F)F	> 30	20
